Calls of active or inactive are those of the source.
Assays:
[1] = Vero cell cytotoxicity, dose response, cytotoxicity control for Vif-APOBEC3G degradation inhibitor project, Vero cells (AID 1117358); type: functional; conditions: Human immunodeficiency virus 1, Vero
Major prion protein = Major prion protein (Homo sapiens, UniProt P04156); type: functional, cell-based
[2] = biological target: T1, Rac GTPase-activating protein 1 (Homo sapiens, UniProt Q9H0H5); assay: MgcRacGAP GTPase-activating activity inhibitors, confirmation, biochemical, ADP Hunter fluorescence, primary and confirmatory (AID 624330); type: functional
T1 sequence (Q9H0H5 whole entry): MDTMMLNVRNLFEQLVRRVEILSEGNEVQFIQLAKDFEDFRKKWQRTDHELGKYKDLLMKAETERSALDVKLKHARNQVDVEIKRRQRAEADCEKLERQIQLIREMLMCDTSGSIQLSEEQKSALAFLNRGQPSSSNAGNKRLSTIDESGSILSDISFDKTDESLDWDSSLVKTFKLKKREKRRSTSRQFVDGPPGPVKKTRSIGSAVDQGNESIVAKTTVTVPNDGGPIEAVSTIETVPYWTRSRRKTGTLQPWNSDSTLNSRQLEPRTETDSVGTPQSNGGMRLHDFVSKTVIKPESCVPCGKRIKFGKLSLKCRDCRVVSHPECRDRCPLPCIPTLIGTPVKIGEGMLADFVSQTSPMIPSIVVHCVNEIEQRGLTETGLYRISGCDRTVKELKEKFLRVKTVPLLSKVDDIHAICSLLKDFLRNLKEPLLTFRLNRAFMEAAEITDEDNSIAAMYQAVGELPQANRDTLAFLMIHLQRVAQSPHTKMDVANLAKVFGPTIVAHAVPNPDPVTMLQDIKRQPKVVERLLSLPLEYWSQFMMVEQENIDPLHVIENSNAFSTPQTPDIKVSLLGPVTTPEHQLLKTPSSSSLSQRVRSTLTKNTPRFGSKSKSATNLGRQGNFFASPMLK

[3] = inhibitors of clade B AD8 Env fusion, dose response, cell-based, cherry-pick (AID 652062); type: functional;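 note: luciferase signal from cell-cell fusion driven by HIV-1 clade B AD8 Env; potency is for inhibitors of fusion seen as a drop in luminescence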
[4] = inhibitors of HIV Env-driven cell fusion, dose response, cherry-pick (AID 652057); type: functional, cell-based
[5] = CEM21 lymphoblast cell cytotoxicity, dose response, cytotoxicity control for viral fusion inhibitor project, CellTiter-Glo luminescence, cherry-picked (AID 652042); type: functional, cell-based;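 note: potency for signal decrease meaning cytotoxicity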
[6] = ZM109 Env clade C HIV-1 fusion inhibitors, dose response, HeLa effector, CEM target cells, luciferase, cherry-pick (AID 652058); type: functional, cell-based
[7] = off-target signal loss in HeLa-CEM21 co-culture – HeLa F-luc CTL cells, cherry-picked, counter-screen for HIV-1 Env fusion inhibitor project, dose response (AID 652040); type: functional, cell-based;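 note: potency for signal decrease marking cytotoxic or nonspecific inhibition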
[8] = biological target: 1-phosphatidylinositol 4,5-bisphosphate phosphodiesterase beta-3 (Homo sapiens, UniProt Q01970); assay: Fluorescence-based biochemical high throughput dose response assay to identify inhibitors of phospholipase C isozymes (PLC-B3).
[9] = biological target: 1-phosphatidylinositol 4,5-bisphosphate phosphodiesterase gamma-1 (Homo sapiens, UniProt P19174); assay: Counterscreen for inhibitors of phospholipase C isozymes (PLC-B3): Fluorescence-based biochemical high throughput dose response assay to identify inhibitors of phospholipase C isozymes (PLC-gamma1).
[10] = THP-1 cell cytotoxicity, dose response, cytotoxicity control for Vif-APOBEC3G degradation inhibitor project, THP-1 cells (AID 1117359); type: functional; conditions: Human immunodeficiency virus 1, THP-1
[11] = Counterscreen for activators of the function of SWI/SNF related, matrix associated, actin dependent regulator of chromatin, subfamily a, member 2 (SMARCA2, BRM): Luminescence-based cell-based high throughput dose response assay to identify non-selective compounds using the VP16 reporter assay.; type: functional
[12] = biological target: T2, RNA-binding protein pos-1 (Caenorhabditis elegans, UniProt G5EF15); assay: inhibitors of POS-1/mex-3 RNA binding, dose response, biochemical, fluorescence polarization (AID 1964);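 note: purified POS-1 fused to maltose binding protein made in E. coli; potency of compounds blocking POS-1 binding to fluorescent RNA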
T2 sequence (G5EF15 whole entry): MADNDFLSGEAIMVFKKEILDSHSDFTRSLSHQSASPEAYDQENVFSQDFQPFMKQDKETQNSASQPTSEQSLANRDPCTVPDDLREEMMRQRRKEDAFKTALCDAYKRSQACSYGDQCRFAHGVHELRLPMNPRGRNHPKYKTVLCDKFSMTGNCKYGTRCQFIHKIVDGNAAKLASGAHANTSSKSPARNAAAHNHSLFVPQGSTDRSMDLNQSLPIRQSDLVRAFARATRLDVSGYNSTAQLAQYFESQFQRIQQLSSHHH

[13] = biological target: T3, Zinc finger protein mex-5 (Caenorhabditis elegans, UniProt Q9XUB2); assay: MEX-5/TCR-2 RNA interaction inhibitors, dose response, biochemical, C. elegans, fluorescence polarization (AID 1960)
T3 sequence (Q9XUB2 whole entry): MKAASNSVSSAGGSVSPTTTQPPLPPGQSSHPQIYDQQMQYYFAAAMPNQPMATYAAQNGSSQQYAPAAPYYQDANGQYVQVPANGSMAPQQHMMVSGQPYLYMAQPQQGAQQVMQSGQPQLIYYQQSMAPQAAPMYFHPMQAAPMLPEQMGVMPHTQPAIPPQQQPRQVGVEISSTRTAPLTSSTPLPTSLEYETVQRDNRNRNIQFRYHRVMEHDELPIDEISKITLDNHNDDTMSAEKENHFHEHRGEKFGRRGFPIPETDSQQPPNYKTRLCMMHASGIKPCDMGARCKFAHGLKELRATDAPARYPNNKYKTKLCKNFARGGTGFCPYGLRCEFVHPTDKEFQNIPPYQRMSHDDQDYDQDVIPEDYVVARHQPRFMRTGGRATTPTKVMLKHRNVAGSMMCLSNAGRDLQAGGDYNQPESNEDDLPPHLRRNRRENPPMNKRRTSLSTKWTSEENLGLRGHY

[14] = biological target: SWI/SNF-related matrix-associated actin-dependent regulator of chromatin subfamily A member 2 (Homo sapiens, UniProt P51531); assay: Luminescence-based cell-based high throughput dose response assay to identify activators of the function of SWI/SNF related, matrix associated, actin dependent regulator of chromatin, subfamily a, member 2 (SMARCA2, BRM).; type: functional
HeLa = assay: HeLa cell cytotoxicity, dose response, cytotoxicity control, ATP luminescence, cherry-pick samples (AID 687004); type: functional, cell-based; conditions: Homo sapiens
Paired box protein Pax-8 = Paired box protein Pax-8 (Homo sapiens, UniProt Q06710); assay: inhibitors of PAX8-driven TPO luciferase reporter, dose response, RMG-I cells, cherry-pick (AID 687027); type: functional, cell-based;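 note: luciferase reporter driven by Pax8 target thyroperoxidase promoter measured by SteadyGlo luminescence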
[15] = non-specific cell cytotoxicity, dose response, cytotoxicity control for PAX8 inhibitor project, plate reader, dry powder samples (AID 743021); type: functional, cell-based

Cc1ccc(Nc2nc(C(=O)NCc3ccco3)cs2)cc1
CC50 [1]: > 40 µM (active)

CC(C)c1nc(SCC(=O)Nc2ccc(N(C)C)cc2)c2ccccc2n1
IC50 (Major prion protein): 2.94 µM (active) | IC50 (cells): 58.2 µM (inactive) | IC50 [2]: 196 µM (active)

COC(=O)N1[C@H](C)C=C[C@]1(Cc1ccccc1)C(=O)NCCCNc1ncc(C(F)(F)F)cc1Cl
AC50 [3]: 11.9 µM (active) | AC50 [4]: 3.42 µM (active) | AC50 [5]: 48.6 µM (active) | AC50 [6]: 6.11 µM (active) | AC50 [7]: 6.96 µM (active)

COc1ccc(N=C(S)NCCc2ccccc2OC)c(OC)c1
CC50 [1]: > 40 µM (active)

CC(C)(C)C1CCC(C(=O)Nc2ccccc2)CC1 (stereo not drawn)
IC50 [8]: > 122 µM (inactive) | IC50 [9]: > 122 µM (inactive)

CCn1c(=O)oc2cc(NC(=O)CCl)ccc21
CC50 [10]: > 40 µM (active)

CCCCNC(=O)c1cc2c(=O)n3cccc(C)c3nc2n(Cc2ccncc2)c1=N
EC50 [11]: > 91.1 µM (inactive) | EC50 [12]: 24.3 µM (inconclusive) | EC50 [13]: 39.6 µM (inconclusive) | EC50 [14]: > 91.1 µM (inactive)

O=C1/C(=C\c2ccco2)CCC/C1=C\c1ccco1
CC50 [10]: > 40 µM (active)

N=C(N)NS(=O)(=O)c1ccc(NC(=S)NC(=O)c2ccc3c(c2)OCO3)cc1
IC50 (Major prion protein): 15.1 µM (inactive) | IC50 (cells): > 138 µM (inactive)

Cc1ccc2nc(C)c3c(c2c1)OC(C(C)(Cl)Br)C3 (stereo not drawn)
AC50 (HeLa): > 52 µM (inactive)

CC1(C)CC(=O)C=C(C#CC2(O)CCCCC2)C1
AC50 (Paired box protein Pax-8): 4.34 µM (active) | AC50 [15]: 64.8 µM (active)
